Test results reported in ChEMBL document CHEMBL1122447, “2-Acetylpyridine thiosemicarbazones. 5. 1-[1-(2-Pyridyl)ethyl]-3-thiosemicarbazides as potential antimalarial agents” (1983).

Experiments:
Plasmodium berghei [1] = assay: Antimalarial activity against Plasmodium berghei infected mice (Mus musculus) at 640 mg/kg; toxic in 5 of 5; format: functional, organism-based; parameters: dose 640 mg/kg
Plasmodium berghei [2] = assay: Increased mean survival time in drug-sensitive Plasmodium berghei infected mice (Mus musculus) at 160 mg/kg; cured 5 of 5; format: functional
Plasmodium berghei [3] = assay: Antimalarial activity against Plasmodium berghei infected mice (Mus musculus) at 320 mg/kg; toxic in 1 of 5; format: functional, organism-based; parameters: dose 320 mg/kg
Plasmodium berghei [4] = assay: Increased mean survival time in drug-sensitive Plasmodium berghei infected mice (Mus musculus) at 320 mg/kg; cured 2 of 5; format: functional, organism-based; parameters: dose 320 mg/kg
Plasmodium berghei [5] = assay: Increased mean survival time in drug-sensitive Plasmodium berghei infected mice (Mus musculus) at 40 mg/kg; cured 1 of 5; format: functional, organism-based; parameters: dose 40 mg/kg
Plasmodium berghei [6] = assay: Increased mean survival time in drug-sensitive Plasmodium berghei infected mice (Mus musculus) at 20 mg/kg dose; format: functional
Plasmodium berghei [7] = assay: Increased mean survival time in drug-sensitive Plasmodium berghei infected mice (Mus musculus) at 80 mg/kg; cures 3 of 5; format: functional, organism-based; parameters: dose 80 mg/kg

CC(N/N=C(\S)N1CCN(c2ccccn2)CC1)c1ccccn1 (configuration not stated)
Survival time (Plasmodium berghei [1]): Toxic in 5 of 5 mice | Survival time (Plasmodium berghei [2]): 5 days | Survival time (Plasmodium berghei [3]): Toxic in 1 of 5 mice | Survival time (Plasmodium berghei [4]): Cured 2 of 5 mice | Survival time (Plasmodium berghei [5]): Cured 1 of 5 mice | Survival time (Plasmodium berghei [6]): 0.4 days | Survival time (Plasmodium berghei [7]): Cured 3 of 5 mice
